Test results reported in paper PMC4741798, “Imaging of carbonic anhydrase IX with an ^111In-labeled dual-motif inhibitor” (Oncotarget, 2015).

Assays:
CAIX [1] = molecular target: T1, CAIX (Homo sapiens, UniProt Q16790); assay: Competitive fluorescence polarization assay with FITC-labeled 8; assay type: binding; settings: 100 nM CAIX, 80 nM 8, 30 min room temperature, triplicate; read-out: IC50 (inhibition of fluorescence polarization of FITC labeled 8)
T1 construct: purchased R&D Systems
From the text: We synthesized fluorescein isothiocyanate (FITC)-labeled 8 as a standard to measure CAIX binding affinities of the corresponding radiotracers. […] CAIX-selective binding was confirmed by fluorescence microscopic analyses of SK-RC-53 and BxPC3 cells labeled with 8 (Fig. 2). […] In order to test the relative binding of XYIMSR-01 and [^113/115In]XYIMSR-01 to CAIX we modified a competitive fluorescence polarization assay for use with 8. For the competitive binding assay, after optimization for background fluorescence, we chose concentrations of 80 nM and 100 nM for 8 and CAIX, respectively. […] Increasing concentrations of 1, XYIMSR-01 and [^113/115In]XYIMSR-01 were incubated with CAIX for 30 min at room temperature. After 8 was added, fluorescence polarization signal was recorded. […] We took advantage of fluorescence polarization using 8 to measure relative binding affinities for other isoforms of the carbonic anhydrases. We chose to test one cytosolic (CAII) and an additional membrane-localized isoform (CAXII).
Fluorescence polarization (FP) experiments were performed in 21 μL of the assay buffer (12.5 mM Tris-HCl, pH 7.5, 75 mM NaCl) in black flat bottom 384-well microplates (Corning, Inc., New York, NY). The FP reaction employed 100 nM of purified CAIX (R&D systems, Minneapolis, MN) and 80 nM FITC-labeled 8 [27] within the assay buffer. The FP values were measured as mP units using the Victor3 multi-label plate reader equipped with excitation (485 nm) and emission (535 nm) filters (Perkin Elmer, Waltham, MA). 100 nM CAIX was incubated with serially diluted (from 1 μM to 61 fM) concentrations of the three targeting molecules, 1, XYIMSR-01, and [^113/115In]XYIMSR-01 for 30 min at room temperature in 384-well plates. 80 nM 8 was added to each well and the reaction was incubated for 30 min at room temperature followed by FP measurement. Experiments were carried out in triplicate and the concentration resulting in 50% response (IC50) was calculated in GraphPad Prism 5 (GraphPad Software, La Jolla, CA) using the sigmoidal dose-response regression function.

CAIX [2] = molecular target: CAIX; parameters: method as in PMID 25698334; settings: reported value; cited from earlier work

SMILES	IC50 (CAIX [1]) [nM]	Kd (CAIX [2]) [nM]
CC(CCC(=O)N[C@@H](CC(=O)N[C@@H](CC(=O)N[C@@H](CCCCn1cc(CCCC(=O)Nc2nnc(S(N)(=O)=O)s2)nn1)C(=O)NCCOCCOCCN)C(=O)O)C(=O)O)(c1ccc(O)cc1)c1ccc(O)cc1 [Compound 1, N^4-((S)-1-((2-(2-(2-aminoethoxy)ethoxy)ethyl)amino)-1-oxo-6-(4-(4-oxo-4-((5-sulfamoyl-1,3,4-thiadiazol-2-yl)amino)butyl)-1H-1,2,3-triazol-1-yl)hexan-2-yl)-N^2-((S)-3-(4,4-bis(4-hydroxyphenyl)pentanamido)-3-carboxypropanoyl)-L-asparagine, reference compound]	75.9	2.6
CC(CCC(=O)N[C@@H](CC(=O)N[C@@H](CC(=O)N[C@@H](CCCCn1cc(CCCC(=O)Nc2nnc(S(N)(=O)=O)s2)nn1)C(=O)NCCOCCOCCNC(=O)CN1CCN(CC(=O)O)CCN(CC(=O)O)CCN(CC(=O)O)CC1)C(=O)O)C(=O)O)(c1ccc(O)cc1)c1ccc(O)cc1 [XYIMSR-01, 2,2′,2′'-(10-((14S,18S,22S)-18,22-dicarboxy-27,27-bis(4-hydroxyphenyl)-2,13,16,20,24-pentaoxo-14-(4-(4-(4-oxo-4-((5-sulfamoyl-1,3,4-thiadiazol-2-yl)amino)butyl)-1H-1,2,3-triazol-1-yl)butyl)-6,9-dioxa-3,12,15,19,23-pentaazaoctacosyl)-1,4,7,10-tetraazacyclododecane-1,4,7-triyl)triacetic acid]	67	
CC(CCC(=O)N[C@@H](CC(=O)N[C@@H](CC(=O)N[C@@H](CCCCn1cc(CCCC(=O)Nc2nnc(S(N)(=O)=O)s2)nn1)C(=O)NCCOCCOCCNC(=O)CN1CCN(CC(=O)[O-])CCN(CC(=O)[O-])CCN(CC(=O)[O-])CC1)C(=O)O)C(=O)O)(c1ccc(O)cc1)c1ccc(O)cc1.[In+3] [[^113/115In]XYIMSR-01, ^113/115Indium(III) 2,2′,2′'-(10-((14S,18S,22S)-18,22-dicarboxy-27,27-bis(4-hydroxyphenyl)-2,13,16,20,24-pentaoxo-14-(4-(4-(4-oxo-4-((5-sulfamoyl-1,3,4-thiadiazol-2-yl)amino)butyl)-1H-1,2,3-triazol-1-yl)butyl)-6,9-dioxa-3,12,15,19,23-pentaazaoctacosyl)-1,4,7,10-tetraazacyclododecane-1,4,7-triyl)triacetate]	108	
